What all share (assay type): binding
The target in assay [1] is T1, DNA-dependent protein kinase (DNA-PK) (Homo sapiens, UniProt P78527).
T1 construct: endogenous in cells; host or cells: Jurkat, clone E6-1 (ATCC TIB-152) cell lysate
The experiment in a line: kinobeads assay, DNA-PK. The note with it: kinobeads assay, Table 6; read-out: Inhibition values (IC50) DNAPK. In short, it runs like this: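 IC50 values came from dose-response curves after test compound (1:3 series) competed with an immobilized phenylmorpholin-chromen affinity matrix for kinases in Jurkat lysate at 5 mg/mL protein. Eluted captured DNA-PK and PI3Kδ were measured by specific-antibody dot blot and infrared imaging. Buffer was Tris pH 7.4, NP40, MgCl2, NaCl, vanadate, DTT, NaF.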

The target in the next assay is T2, PI3 Kgamma (PI3 Kg) (Homo sapiens, UniProt P48736).
T2 construct: endogenous in cells; host or cells: cell lysate
As to the kind of experiment: kinobeads assay, PI3Kgamma. Particulars: kinobeads assay, Table 6; read-out: Inhibition values (IC50) PI3Kg. In a few lines: (§1)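 Cell lysate aliquots are incubated with compound over a concentration range and with an affinity matrix of immobilized phenylmorpholin-chromen ligand. Beads are then removed, bound proteins eluted, and each kinase is quantified by multiplexed immunodetection to derive IC50 values.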

The next assay addresses T3, PI3 Kbeta (PI3 Kb) (Homo sapiens, UniProt P42338).
T3 construct: endogenous in cells; host or cells: cell lysate
The experiment in a line: kinobeads assay, PI3Kbeta. The note with it: kinobeads assay, Table 6; read-out: Inhibition values (IC50) PI3Kb. In short, it runs like this: as §1

The next assay deals with T4, PI3Kalpha (PI3Ka) (Homo sapiens, UniProt P42336).
T4 construct: endogenous in cells; host or cells: cell lysate
As to the kind of experiment: kinobeads assay, PI3Kalpha. Particulars: kinobeads assay, Table 6; for IC50: read-out: Inhibition values (IC50) PI3Ka. In short, it runs like this:
as §1

T1 sequence (P78527 whole entry): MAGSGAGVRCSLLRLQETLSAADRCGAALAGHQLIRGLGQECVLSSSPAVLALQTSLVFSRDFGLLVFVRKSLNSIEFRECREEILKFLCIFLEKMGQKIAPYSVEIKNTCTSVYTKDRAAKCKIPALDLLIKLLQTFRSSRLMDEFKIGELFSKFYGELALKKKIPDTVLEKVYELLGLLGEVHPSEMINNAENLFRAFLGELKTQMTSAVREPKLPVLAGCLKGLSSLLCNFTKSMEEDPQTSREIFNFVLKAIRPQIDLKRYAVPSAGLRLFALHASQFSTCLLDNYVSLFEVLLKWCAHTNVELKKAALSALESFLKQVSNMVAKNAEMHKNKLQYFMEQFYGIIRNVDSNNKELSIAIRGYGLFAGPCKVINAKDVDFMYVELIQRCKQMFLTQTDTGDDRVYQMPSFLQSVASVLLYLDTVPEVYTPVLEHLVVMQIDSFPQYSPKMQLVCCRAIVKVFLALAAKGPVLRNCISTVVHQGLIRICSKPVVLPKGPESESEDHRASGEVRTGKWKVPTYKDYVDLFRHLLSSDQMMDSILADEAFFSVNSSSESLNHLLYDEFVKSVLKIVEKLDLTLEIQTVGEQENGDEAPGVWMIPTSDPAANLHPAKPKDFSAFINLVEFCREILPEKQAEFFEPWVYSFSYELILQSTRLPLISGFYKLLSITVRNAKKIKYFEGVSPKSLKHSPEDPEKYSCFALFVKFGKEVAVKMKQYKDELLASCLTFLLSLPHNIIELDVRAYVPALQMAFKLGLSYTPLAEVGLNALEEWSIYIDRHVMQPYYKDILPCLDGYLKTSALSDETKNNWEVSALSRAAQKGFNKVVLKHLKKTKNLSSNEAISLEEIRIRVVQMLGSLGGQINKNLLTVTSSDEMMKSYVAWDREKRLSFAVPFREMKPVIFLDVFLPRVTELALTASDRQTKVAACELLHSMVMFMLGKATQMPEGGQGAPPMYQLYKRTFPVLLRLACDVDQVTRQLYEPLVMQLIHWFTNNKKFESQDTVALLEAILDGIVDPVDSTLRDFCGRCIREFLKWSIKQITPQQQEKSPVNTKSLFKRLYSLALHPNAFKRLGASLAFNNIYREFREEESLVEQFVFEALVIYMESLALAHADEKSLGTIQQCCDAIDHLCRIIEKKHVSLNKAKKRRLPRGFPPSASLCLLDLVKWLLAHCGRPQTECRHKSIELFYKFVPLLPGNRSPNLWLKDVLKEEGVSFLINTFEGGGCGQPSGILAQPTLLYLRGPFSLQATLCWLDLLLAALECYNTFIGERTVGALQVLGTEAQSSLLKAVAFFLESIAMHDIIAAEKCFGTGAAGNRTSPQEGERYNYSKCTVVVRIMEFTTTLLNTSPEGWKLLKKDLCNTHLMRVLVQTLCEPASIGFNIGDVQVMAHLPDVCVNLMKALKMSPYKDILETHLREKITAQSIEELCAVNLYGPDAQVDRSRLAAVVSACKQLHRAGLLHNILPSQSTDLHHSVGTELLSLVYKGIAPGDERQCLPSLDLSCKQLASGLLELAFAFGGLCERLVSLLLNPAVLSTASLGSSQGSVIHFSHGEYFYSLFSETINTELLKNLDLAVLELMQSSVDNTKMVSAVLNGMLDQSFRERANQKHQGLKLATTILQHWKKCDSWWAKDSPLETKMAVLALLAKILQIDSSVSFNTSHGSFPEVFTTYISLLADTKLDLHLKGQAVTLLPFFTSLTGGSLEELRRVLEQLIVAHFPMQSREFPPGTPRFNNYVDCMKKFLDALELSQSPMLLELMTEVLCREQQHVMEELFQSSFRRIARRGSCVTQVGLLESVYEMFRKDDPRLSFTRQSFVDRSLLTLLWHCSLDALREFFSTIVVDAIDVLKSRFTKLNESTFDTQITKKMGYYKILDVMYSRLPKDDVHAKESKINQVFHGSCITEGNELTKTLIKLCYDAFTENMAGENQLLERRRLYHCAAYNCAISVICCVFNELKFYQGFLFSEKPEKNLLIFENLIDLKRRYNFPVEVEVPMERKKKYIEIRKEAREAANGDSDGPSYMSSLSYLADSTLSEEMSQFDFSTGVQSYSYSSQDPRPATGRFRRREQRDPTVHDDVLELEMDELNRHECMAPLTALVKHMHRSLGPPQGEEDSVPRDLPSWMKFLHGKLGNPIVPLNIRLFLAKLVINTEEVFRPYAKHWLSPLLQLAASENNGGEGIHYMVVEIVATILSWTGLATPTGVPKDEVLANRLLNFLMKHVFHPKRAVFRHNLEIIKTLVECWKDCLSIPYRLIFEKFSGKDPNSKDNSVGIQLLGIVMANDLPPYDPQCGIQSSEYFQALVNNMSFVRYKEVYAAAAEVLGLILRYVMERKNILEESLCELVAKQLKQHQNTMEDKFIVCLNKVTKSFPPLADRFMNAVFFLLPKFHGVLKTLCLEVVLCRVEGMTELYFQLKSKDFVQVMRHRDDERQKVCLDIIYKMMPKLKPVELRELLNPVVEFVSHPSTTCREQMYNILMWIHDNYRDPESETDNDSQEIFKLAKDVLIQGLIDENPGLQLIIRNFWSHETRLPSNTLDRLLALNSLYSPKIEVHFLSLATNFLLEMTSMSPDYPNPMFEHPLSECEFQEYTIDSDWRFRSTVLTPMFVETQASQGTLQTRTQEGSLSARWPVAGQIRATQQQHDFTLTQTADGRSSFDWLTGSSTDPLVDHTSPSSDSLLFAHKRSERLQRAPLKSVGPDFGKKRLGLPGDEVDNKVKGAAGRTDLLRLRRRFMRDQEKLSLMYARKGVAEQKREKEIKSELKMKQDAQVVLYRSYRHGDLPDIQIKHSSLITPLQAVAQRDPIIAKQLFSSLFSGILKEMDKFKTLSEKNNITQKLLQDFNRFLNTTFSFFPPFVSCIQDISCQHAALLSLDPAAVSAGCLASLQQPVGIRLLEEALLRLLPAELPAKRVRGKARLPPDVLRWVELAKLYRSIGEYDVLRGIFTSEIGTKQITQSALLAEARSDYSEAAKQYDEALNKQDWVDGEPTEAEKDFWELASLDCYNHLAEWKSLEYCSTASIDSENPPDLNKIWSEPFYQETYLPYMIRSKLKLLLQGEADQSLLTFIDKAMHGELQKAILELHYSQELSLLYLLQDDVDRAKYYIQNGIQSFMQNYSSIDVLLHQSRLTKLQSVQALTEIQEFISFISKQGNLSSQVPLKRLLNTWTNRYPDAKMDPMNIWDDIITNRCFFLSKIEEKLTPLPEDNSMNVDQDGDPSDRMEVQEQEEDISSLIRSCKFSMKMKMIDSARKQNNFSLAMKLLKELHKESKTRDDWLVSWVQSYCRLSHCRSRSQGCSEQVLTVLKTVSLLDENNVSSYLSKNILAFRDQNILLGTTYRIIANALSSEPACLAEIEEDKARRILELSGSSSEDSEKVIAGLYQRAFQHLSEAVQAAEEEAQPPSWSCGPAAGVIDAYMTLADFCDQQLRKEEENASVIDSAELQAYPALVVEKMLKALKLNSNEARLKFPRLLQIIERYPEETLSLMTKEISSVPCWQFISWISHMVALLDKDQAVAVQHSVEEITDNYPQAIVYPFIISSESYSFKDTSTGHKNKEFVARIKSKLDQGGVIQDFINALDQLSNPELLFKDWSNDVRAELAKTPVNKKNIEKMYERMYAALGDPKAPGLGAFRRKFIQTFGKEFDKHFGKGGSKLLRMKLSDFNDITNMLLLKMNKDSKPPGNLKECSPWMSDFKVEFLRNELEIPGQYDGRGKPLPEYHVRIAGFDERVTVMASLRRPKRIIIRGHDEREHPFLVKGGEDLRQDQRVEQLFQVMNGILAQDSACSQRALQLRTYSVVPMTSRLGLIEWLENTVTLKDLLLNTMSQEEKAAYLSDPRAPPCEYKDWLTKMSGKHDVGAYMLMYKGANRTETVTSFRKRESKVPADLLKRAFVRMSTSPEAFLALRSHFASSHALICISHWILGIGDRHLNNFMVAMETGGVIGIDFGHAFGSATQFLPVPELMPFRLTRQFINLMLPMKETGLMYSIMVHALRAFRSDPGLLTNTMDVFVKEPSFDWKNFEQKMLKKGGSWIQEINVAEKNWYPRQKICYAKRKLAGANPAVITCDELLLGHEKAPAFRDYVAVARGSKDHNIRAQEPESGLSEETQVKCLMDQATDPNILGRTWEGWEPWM

The term IC50 denotes the concentration needed to halve the response being measured. Regarding `COC(=O)N1Cc2nc(-c3ccc(NC(=O)NC4CC4)cc3)nc(N3CCOC[C@@H]3C)c2C1` [Example 86, (S)-methyl 2-(4-(3-cyclopropylureido)phenyl)-4-(3-methylmorpholino)-5H-pyrrolo[3,4-d]pyrimidine-6(7H)-carboxylate], the IC50 (in assay [1]; on PI3 Kgamma (PI3 Kg); on PI3 Kbeta (PI3 Kb)) was greater than 10 µM throughout. Also, at PI3Kalpha (PI3Ka), the “Inhibition values (IC50) PI3Ka” value is “D (D >10 μM)”.
With `CCNC(=O)Nc1ccc(-c2nc3c(c(N4CCOC[C@@H]4C)n2)CCN(C(=O)NCC)C3)cc1` [Example 87, (S)—N-ethyl-2-(4-(3-ethylureido)phenyl)-4-(3-methylmorpholino)-5,6-dihydropyrido[3,4-d]pyrimidine-7(8H)-carboxamide], the IC50 (in assay [1]; at PI3 Kgamma (PI3 Kg); on PI3 Kbeta (PI3 Kb)) was greater than 10 µM each time. In addition, the “Inhibition values (IC50) PI3Ka” value on PI3Kalpha (PI3Ka) is recorded as “D (D >10 μM)”.
For the molecule `CCNC(=O)N1CCc2c(nc(-c3ccc(NC(=O)NC4CC4)cc3)nc2N2CCOC[C@@H]2C)C1` [Example 88, (S)-2-(4-(3-cyclopropylureido)phenyl)-N-ethyl-4-(3-methylmorpholino)-5,6-dihydropyrido[3,4-d]pyrimidine-7(8H)-carboxamide], the IC50 (in assay [1]; on PI3 Kgamma (PI3 Kg); on PI3 Kbeta (PI3 Kb)) was greater than 10 µM in each case. On PI3Kalpha (PI3Ka), the “Inhibition values (IC50) PI3Ka” value is recorded as “D (D >10 μM)”.
As for `CCNC(=O)Nc1ccc(-c2nc3c(c(N4CCOC[C@@H]4C)n2)CN(C(=O)OC)C3)cc1` [Example 89, (S)-methyl 2-(4-(3-ethylureido)phenyl)-4-(3-methylmorpholino)-5H-pyrrolo[3,4-d]pyrimidine-6(7H)-carboxylate], the figures for the IC50 (in assay [1]; at PI3 Kgamma (PI3 Kg); on PI3 Kbeta (PI3 Kb)) were 1 to 10 µM, greater than 10 µM and greater than 10 µM, respectively. The “Inhibition values (IC50) PI3Ka” value at PI3Kalpha (PI3Ka) was “D (D >10 μM)”.
For the molecule `CCNC(=O)Nc1ccc(-c2nc3c(c(N4CCOC[C@@H]4C)n2)CN(C(=O)OCC)C3)cc1` [Example 90, (S)-ethyl 2-(4-(3-ethylureido)phenyl)-4-(3-methylmorpholino)-5H-pyrrolo[3,4-d]pyrimidine-6(7H)-carboxylate], the IC50 (in assay [1]; on PI3 Kgamma (PI3 Kg); at PI3 Kbeta (PI3 Kb)) was greater than 10 µM throughout. The “Inhibition values (IC50) PI3Ka” value at PI3Kalpha (PI3Ka) is “D (D >10 μM)”.
As to `CCNC(=O)Nc1ccc(-c2nc3c(c(N4CCOC[C@@H]4C)n2)CCN(C(=O)Cc2cccnc2)C3)cc1` [Example 91, (S)-1-ethyl-3-(4-(4-(3-methylmorpholino)-7-(2-(pyridin-3-yl)acetyl)-5,6,7,8-tetrahydropyrido[3,4-d]pyrimidin-2-yl)phenyl)urea], the IC50 (in assay [1]; at PI3 Kgamma (PI3 Kg); on PI3 Kbeta (PI3 Kb)) was greater than 10 µM each time. Further, the “Inhibition values (IC50) PI3Ka” value at PI3Kalpha (PI3Ka) is reported as “D (D >10 μM)”.
Turning to `CCNC(=O)Nc1ccc(-c2nc3c(c(N4CCOCC4)n2)CCN(C)C3)cc1` [Example 93, 1-ethyl-3-(4-(7-methyl-4-morpholino-5,6,7,8-tetrahydropyrido[3,4-d]pyrimidin-2-yl)phenyl)urea], the half-maximal inhibitory concentration (IC50) (in assay [1]; at PI3 Kgamma (PI3 Kg); at PI3 Kbeta (PI3 Kb)) was greater than 10 µM throughout. The “Inhibition values (IC50) PI3Ka” value at PI3Kalpha (PI3Ka) was “D (D >10 μM)”.
Consider `CCNC(=O)Nc1ccc(-c2nc3c(c(N4CCOCC4)n2)CCN(C(=O)NCC)C3)cc1` [Example 94, N-ethyl-2-(4-(3-ethylureido)phenyl)-4-morpholino-5,6-dihydropyrido[3,4-d]pyrimidine-7(8H)-carboxamide], for which the IC50 in assay [1] is greater than 10 µM; at PI3 Kgamma (PI3 Kg), greater than 10 µM; at PI3 Kbeta (PI3 Kb), greater than 10 µM; on PI3Kalpha (PI3Ka), 1 to 10 µM.
In the case of `CCNC(=O)Nc1ccc(-c2nc3c(c(N4CCOCC4)n2)CCN(C(=O)OCC)C3)cc1` [Example 96, ethyl 2-(4-(3-ethylureido)phenyl)-4-morpholino-5,6-dihydropyrido[3,4-d]pyrimidine-7(8H)-carboxylate], the IC50 (in assay [1]; on PI3 Kgamma (PI3 Kg); at PI3 Kbeta (PI3 Kb)) was greater than 10 µM in each case. Further, at PI3Kalpha (PI3Ka), the “Inhibition values (IC50) PI3Ka” value is “D (D >10 μM)”.
Turning to `CCNC(=O)Nc1ccc(-c2nc3c(c(N4CCOCC4)n2)CCN(C(C)=O)C3)cc1` [Example 97, 1-(4-(7-acetyl-4-morpholino-5,6,7,8-tetrahydropyrido[3,4-d]pyrimidin-2-yl)phenyl)-3-ethylurea], the IC50 is 1 to 10 µM in assay [1], greater than 10 µM at PI3 Kgamma (PI3 Kg), 1 to 10 µM on PI3 Kbeta (PI3 Kb) and 1 to 10 µM at PI3Kalpha (PI3Ka).
Take `CCNC(=O)Nc1ccc(-c2nc3c(c(N4CCOCC4)n2)CCN(C(=O)C(C)(C)C)C3)cc1` [Example 98, 1-ethyl-3-(4-(4-morpholino-7-pivaloyl-5,6,7,8-tetrahydropyrido[3,4-d]pyrimidin-2-yl)phenyl)urea]: the IC50 is greater than 10 µM in assay [1], greater than 10 µM at PI3 Kgamma (PI3 Kg), greater than 10 µM at PI3 Kbeta (PI3 Kb) and 1 to 10 µM on PI3Kalpha (PI3Ka).
On to `CCNC(=O)Nc1ccc(-c2nc3c(c(N4CCOCC4)n2)CN(C(=O)C(C)(C)C)C3)cc1` [Example 100, 1-ethyl-3-(4-(4-morpholino-6-pivaloyl-6,7-dihydro-5H-pyrrolo[3,4-d]pyrimidin-2-yl)phenyl)urea], for which the IC50 is greater than 10 µM in assay [1], greater than 10 µM on PI3 Kgamma (PI3 Kg), greater than 10 µM at PI3 Kbeta (PI3 Kb) and 1 to 10 µM on PI3Kalpha (PI3Ka).
Consider `CCNC(=O)Nc1ccc(-c2nc3c(c(N4CCOC[C@@H]4C)n2)CCN(C(=O)CO)C3)cc1` [Example 102, (S)-1-ethyl-3-(4-(7-(2-hydroxyacetyl)-4-(3-methylmorpholino)-5,6,7,8-tetrahydropyrido[3,4-d]pyrimidin-2-yl)phenyl)urea], for which the IC50 (in assay [1]; at PI3 Kgamma (PI3 Kg); on PI3 Kbeta (PI3 Kb)) was greater than 10 µM in each case. Further, at PI3Kalpha (PI3Ka), the “Inhibition values (IC50) PI3Ka” value is reported as “D (D >10 μM)”.
On to `CCNC(=O)Nc1ccc(-c2nc3c(c(N4CCOC[C@@H]4C)n2)CN(C(=O)OCC)C3)cc1F` [Example 103, (S)-ethyl-2-(4-(3-ethylureido)-3-fluorophenyl)-4-(3-methylmorpholino)-5H-pyrrolo[3,4-d]pyrimidine-6(7H)-carboxylate], for which the IC50 (in assay [1]; at PI3 Kgamma (PI3 Kg); at PI3 Kbeta (PI3 Kb)) was greater than 10 µM in each case. In addition, the “Inhibition values (IC50) PI3Ka” value at PI3Kalpha (PI3Ka) is on record as “D (D >10 μM)”.
As for `CCOC(=O)N1Cc2nc(-c3ccc(NC(=O)NCCO)c(F)c3)nc(N3CCOC[C@@H]3C)c2C1` [Example 104, (S)-ethyl-2-(3-fluoro-4-(3-(2-hydroxyethyl)ureido)phenyl)-4-(3-methylmorpholino)-5H-pyrrolo[3,4-d]pyrimidine-6(7H)-carboxylate], the IC50 (in assay [1]; at PI3 Kgamma (PI3 Kg); at PI3 Kbeta (PI3 Kb)) was greater than 10 µM each time. The “Inhibition values (IC50) PI3Ka” value at PI3Kalpha (PI3Ka) is recorded as “D (D >10 μM)”.
In the case of `CCOC(=O)N1Cc2nc(-c3ccc(NC(=O)NC4CC4)c(F)c3)nc(N3CCOC[C@@H]3C)c2C1` [Example 105, (S)-ethyl 2-(4-(3-cyclopropylureido)-3-fluorophenyl)-4-(3-methylmorpholino)-5H-pyrrolo[3,4-d]pyrimidine-6(7H)-carboxylate], the IC50 (in assay [1]; on PI3 Kgamma (PI3 Kg); on PI3 Kbeta (PI3 Kb)) was greater than 10 µM throughout. Moreover, on PI3Kalpha (PI3Ka), the “Inhibition values (IC50) PI3Ka” value is given as “D (D >10 μM)”.
`CCNC(=O)Nc1ncc(-c2nc3c(c(N4CCOC[C@@H]4C)n2)CCN(C)C3)s1` [Example 106, (S)-1-ethyl-3-(5-(7-methyl-4-(3-methylmorpholino)-5,6,7,8-tetrahydropyrido[3,4-d]pyrimidin-2-yl)thiazol-2-yl)urea]: the IC50 (in assay [1]; on PI3 Kgamma (PI3 Kg); on PI3 Kbeta (PI3 Kb)) was greater than 10 µM in each case. For the same molecule, at PI3Kalpha (PI3Ka), the “Inhibition values (IC50) PI3Ka” value was “D (D >10 μM)”.
With `CCNC(=O)Nc1ccc(-c2nc3c(c(N4CCOC[C@@H]4C)n2)CN(C(=O)OCC)CC3)cc1` [Example 107, (S)-ethyl 2-(4-(3-ethylureido)phenyl)-4-(3-methylmorpholino)-7,8-dihydropyrido[4,3-d]pyrimidine-6(5H)-carboxylate], the IC50 (in assay [1]; on PI3 Kgamma (PI3 Kg); on PI3 Kbeta (PI3 Kb)) was greater than 10 µM in each case. In addition, the “Inhibition values (IC50) PI3Ka” value at PI3Kalpha (PI3Ka) was “D (D >10 μM)”.
Take `CCNC(=O)Nc1cc(F)c(-c2nc3c(c(N4CCOC[C@@H]4C)n2)CCN(C)C3)cc1F` [Example 108, (S)-1-(2,5-difluoro-4-(7-methyl-4-(3-methylmorpholino)-5,6,7,8-tetrahydropyrido[3,4-d]pyrimidin-2-yl)phenyl)-3-ethylurea]: the IC50 (in assay [1]; on PI3 Kgamma (PI3 Kg); at PI3 Kbeta (PI3 Kb)) was greater than 10 µM throughout. Also, the “Inhibition values (IC50) PI3Ka” value at PI3Kalpha (PI3Ka) was “D (D >10 μM)”.
As for `CCNC(=O)Nc1ccc(-c2nc3c(c(N4CCOC[C@@H]4C)n2)CCN(C)C3)c(F)c1` [Example 110, (S)-1-ethyl-3-(3-fluoro-4-(7-methyl-4-(3-methylmorpholino)-5,6,7,8-tetrahydropyrido[3,4-d]pyrimidin-2-yl)phenyl)urea], the half-maximal inhibitory concentration (IC50) (in assay [1]; on PI3 Kgamma (PI3 Kg); at PI3 Kbeta (PI3 Kb)) was greater than 10 µM throughout. Further, the “Inhibition values (IC50) PI3Ka” value at PI3Kalpha (PI3Ka) is given as “D (D >10 μM)”.

The values are drawn from patent publication US8785457B2 (Cellzome Limited, priority 2009, dated 2014).
